The text below walks through data of US8791102B2, “Acetanilide sphingosine-1-phosphate receptor antagonists” (Exelixis, Inc., priority 2008, dated 2014).

This experiment has as its target T1, human S1P1 receptors (Homo sapiens, UniProt P21453).
T1 construct: host or cells: HEK293
Nature of the experiment: S1P1R antagonist assay (fluorescent membrane potential dye, cAMP readout). Type of experiment: cell-based. The following applies: HEK293 cells expressing human S1P1 receptors and CNG channel; 500 nM NECA; S1P1R agonist 10 nM; 90 minutes; read-out: EC50 or IC50 value. The source says:
The S1P1R antagonist assay is a fluorescent membrane potential dye measurement assay, indicative of intracellular cAMP changes due to G protein-coupled receptor activation. HEK293 cells engineered to express human S1P1 receptors and a cyclic nucleotide-gated (CNG) channel are obtained from BD Biosciences, 80300-250. The CNG channels are activated by elevated levels of cAMP, resulting in ion flux and cell membrane depolarization. Membrane depolarization is detected with a membrane potential dye. Stimulation of the cells with 5′-(N-ethylcarboxamido)adenosine (NECA), an A2b receptor agonist (Sigma, E2387), elicits an A2bR-dependent increase in cAMP.
Subsequent exposure of the cells to a S1P1R agonist suppresses the NECA induced increase in cAMP through S1P1R-specific signaling by inhibiting adenylyl cyclase and the formation of cAMP from ATP. The degree to which a test compound overcomes the S1P1R agonist suppression of the NECA induced increase in cAMP is a measure of S1P1R antagonist activity. Antagonist activity is quantified as the IC50 (i.e., the concentration needed to elicited one-half of the maximum response of the test compound) and/or as the EC50 (i.e., the concentration needed to elicited one-half of the NECA induced stimulation).
Day 1: Freshly thawed cells were plated into 384-well plates (Corning, 3683) at a density of 14,000 cells/well in 20 μL, complete media and incubated for 16 hours at 37° C., 5% CO2 and 99% relative humidity. Complete media included Dulbecco's modified Eagle's medium (Invitrogen, 11965-092), 10% Fetal bovine serum (Hyclone, SH30071.03), 250 μg/mL geneticin (Invitrogen, 10131-027), and 1 μg/mL Puromycin (Fluka, 82595).
Day 2: Membrane potential dye (20 μL, BD Biosciences, 341833) was added to each well and the plates were incubated for 2.5 hours at ambient temperature. Test compounds (20 μL) were added to the wells at various concentrations (≦10 μM, 1 to 3 dilutions) in a NECA base solution and incubated for 90 minutes in the presence of the S1P1R agonist {4-((4-phenyl-5-trifluoromethyl-2-thienyl)methoxy)benzyl}-3-azetidinecarboxylic acid (10 nM). The NECA-base solution contained Dulbecco's phosphate-buffered saline (Invitrogen, 14190-136), 2.5% DMSO (Fluka, 41648), 25 μM Ro 20-1724 (Sigma, B8279), and 500 nM NECA).
Assay plates were read with a PerkinElmer EnVision reader (Excitation 350 nm, Emission 590 nm) at time T=0 minutes, before compound addition and at time T=90 minutes. The signal was calculated as the ratio T90/T0. Data was analyzed in ActivityBase XE and graphs showing log of compound concentration (X-axis) vs. % activity (Y-axis) were generated for IC50 determinations. Percent activity was calculated with the following formula: (Signal−Agonist Control Signal)/(NECA Control Signal−Agonist Control Signal)×100.

T1 sequence (P21453 whole entry): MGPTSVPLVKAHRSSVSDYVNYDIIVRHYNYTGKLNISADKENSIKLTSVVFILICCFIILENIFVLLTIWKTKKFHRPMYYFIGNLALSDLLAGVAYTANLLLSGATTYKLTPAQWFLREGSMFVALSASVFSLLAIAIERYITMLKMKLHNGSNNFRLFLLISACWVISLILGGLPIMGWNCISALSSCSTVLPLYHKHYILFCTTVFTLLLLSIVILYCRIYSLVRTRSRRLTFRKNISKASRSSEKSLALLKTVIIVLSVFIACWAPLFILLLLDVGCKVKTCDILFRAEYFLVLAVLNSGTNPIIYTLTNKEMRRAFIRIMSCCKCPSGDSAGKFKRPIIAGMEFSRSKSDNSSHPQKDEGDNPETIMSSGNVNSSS

As usually defined, the IC50 is the concentration needed to halve the response being measured. For `O=C(Nc1ccc(Oc2ccc(F)cc2)cc1)[C@@H]1C[C@H](NCc2ccccc2)CN1C(=O)Cn1cncn1` [Compound 80, (2S,4S)-1-(2-(1H-1,2,4-triazol-1-yl)acetyl)-4-(benzylamino)-N-(4-(4-fluorophenoxy)phenyl)pyrrolidine-2-carboxamide], the IC50 is 300 to 1000 nM.

Turning to `Cc1nccn1CC(=O)N[C@@H](COCc1ccccc1)C(=O)Nc1ccc(Oc2ccc(F)cc2)cc1` [Compound 160, (S)-3-(benzyloxy)-N-(4-(4-fluorophenoxy)phenyl)-2-(2-(2-methyl-1H-imidazol-1-yl)acetamido)propanamide], the IC50 is ≤ 300 nM.

For `O=C(Nc1ccc(Oc2ccc(F)cc2)cc1)[C@@H]1C[C@@H](Cc2ccccc2)CN1C(=O)Cc1c(F)ccc(F)c1F` [Compound 84, (2S,4R)-4-benzyl-N-(4-(4-fluorophenoxy)phenyl)-1-(2-(2,3,6-trifluorophenyl)acetyl)pyrrolidine-2-carboxamide], the IC50 is ≤ 300 nM.

On to `O=C(CCc1cnc[nH]1)N[C@@H](COCc1ccccc1)C(=O)Nc1ccc(Oc2ccc(F)cc2)cc1` [Compound 207, (S)-2-(3-(1H-imidazol-5-yl)propanamido)-3-(benzyloxy)-N-(4-(4-fluorophenoxy)phenyl)propanamide], for which the IC50 was ≤ 300 nM.

On to `CSCC(=O)NC(COCc1ccccc1)C(=O)Nc1ccc(Oc2ccccc2)cc1` (centres unmarked) [Compound 307, N-(2-oxo-1-{[(phenylmethyl)oxy]methyl}-2-{[4-(phenyloxy)phenyl]amino}ethyl)-2-(methylthio)acetamide], for which the IC50 is ≤ 300 nM.

Turning to `O=C(Nc1ccc(Oc2ccc(F)cc2)cc1)[C@@H]1C[C@@H](Cc2ccccc2)CN1C(=O)Cn1cncn1` [Compound 140, (2S,4R)-1-(2-(1H-1,2,4-triazol-1-yl)acetyl)-4-benzyl-N-(4-(4-fluorophenoxy)phenyl)pyrrolidine-2-carboxamide], the IC50 is ≤ 300 nM.

As to `O=C(Cc1cccc(OC(F)(F)F)c1)N[C@@H](COCc1ccccc1)C(=O)Nc1ccc(Oc2ccc(F)cc2)cc1` [Compound 102, (S)-3-(benzyloxy)-N-(4-(4-fluorophenoxy)phenyl)-2-(2-(3-(trifluoromethoxy)phenyl)acetamido)propanamide], the IC50 is > 1000 nM.

Consider `CN(CC(=O)NC(COCc1ccccc1)C(=O)Nc1ccc(Oc2ccccc2)cc1)C(=O)c1ccccc1` (centres unmarked) [Compound 340, N-(2-oxo-1-{[(phenylmethyl)oxy]methyl}-2-{[4-(phenyloxy)phenyl]amino}ethyl)-N-benzoyl-N-methylaminoacetamide], for which the IC50 lay within 300 to 1000 nM.

Consider `O=C(Nc1ccc(Oc2ccc(F)cc2)cc1)[C@@H]1C[C@@H](Cc2ccccc2)CN1C(=O)Cc1c(Cl)cccc1Cl` [Compound 119, (2S,4R)-4-benzyl-1-(2-(2,6-dichlorophenyl)acetyl)-N-(4-(4-fluorophenoxy)phenyl)pyrrolidine-2-carboxamide], for which the IC50 is ≤ 300 nM.

In the case of `O=C(Nc1ccc(Oc2ccc(F)cc2)cc1)[C@@H]1C[C@@H](Cc2ccccc2)CN1C(=O)CN1C(=O)CSC1=S` [Compound 99, (2S,4R)-4-benzyl-N-(4-(4-fluorophenoxy)phenyl)-1-(2-(4-oxo-2-thioxothiazolidin-3-yl)acetyl)pyrrolidine-2-carboxamide], the IC50 is ≤ 300 nM.

Consider `COC(=O)C1CCN(CC(=O)N[C@@H](COCc2ccccc2)C(=O)Nc2ccc(Oc3ccc(F)cc3)cc2)CC1` [Compound 238, (S)-methyl 1-(2-(3-(benzyloxy)-1-(4-(4-fluorophenoxy)phenylamino)-1-oxopropan-2-ylamino)-2-oxoethyl)piperidine-4-carboxylate], for which the IC50 is 300 to 1000 nM.

For the compound `O=C(NC(COCc1ccccc1)C(=O)Nc1ccc(Oc2ccccc2)cc1)c1nc2ccccc2nc1O` (centres unmarked) [Compound 395, 3-hydroxy-N-(2-oxo-1-{[(phenylmethyl)oxy]methyl}-2-{[4-(phenyloxy)phenyl]amino}ethyl)quinoxaline-2-carboxamide], the IC50 was > 1000 nM.

Turning to `O=C(Cc1cccs1)N[C@@H](COCc1ccccc1)C(=O)Nc1ccc(Oc2ccccc2)cc1` [Compound 198, (S)-2-(2-(thien-2-yl)acetamido)-3-benzyloxy-N-(4-phenoxyphenyl)propanamide], the IC50 is 300 to 1000 nM.

Turning to `CC1CCN(CC(=O)N[C@@H](COCc2ccccc2)C(=O)Nc2ccc(Oc3ccc(F)cc3)cc2)CC1` [Compound 130, (S)-3-(benzyloxy)-N-(4-(4-fluorophenoxy)phenyl)-2-(2-(4-methylpiperidin-1-yl)acetamido)propanamide], the IC50 was > 1000 nM.

Take `O=C(Nc1ccc(Oc2ccc(F)cc2)cc1)[C@@H]1C[C@@H](Cc2cccc(Cl)c2)CN1C(=O)Cn1nccn1` [Compound 268, (2S,4R)-1-(2-(2H-1,2,3-triazol-2-yl)acetyl)-4-(3-chlorobenzyl)-N-(4-(4-fluorophenoxy)phenyl)pyrrolidine-2-carboxamide]: the IC50 is ≤ 300 nM.

With `O=C(CCl)N[C@@H](COCc1ccccc1)C(=O)Nc1ccc(Oc2ccc(F)cc2)cc1` [Compound 136, (S)-3-(benzyloxy)-2-(2-chloroacetamido)-N-(4-(4-fluorophenoxy)phenyl)propanamide], the IC50 was ≤ 300 nM.

As to `O=C(Nc1ccc(Oc2ccc(F)cc2)cc1)[C@@H]1C[C@@H](Cc2ccccc2)CN1C(=O)C1CCOC1` (stereo partly drawn) [Compound 36, (2S,4R)-4-benzyl-N-(4-(4-fluorophenoxy)phenyl)-1-(tetrahydrofuran-3-carbonyl)pyrrolidine-2-carboxamide], the IC50 was ≤ 300 nM.

As to `O=C(Nc1ccc(Oc2ccc(F)cc2)cc1)[C@@H]1C[C@@H](Cc2ccc(F)cc2Cl)CN1C(=O)Cn1cncn1` [Compound 9, (2S,4R)-1-(2-(1H-1,2,4-triazol-1-yl)acetyl)-4-(2-chloro-4-fluorobenzyl)-N-(4-(4-fluorophenoxy)phenyl)pyrrolidine-2-carboxamide], the IC50 is ≤ 300 nM.

Turning to `Cc1ccc(OCC(=O)NC(COCc2ccccc2)C(=O)Nc2ccc(Oc3ccccc3)cc2)cc1` (centres unmarked) [Compound 393, N-(2-oxo-1-{[(phenylmethyl)oxy]methyl}-2-{[4-(phenyloxy)phenyl]amino}ethyl)-2-(p-tolyloxy)acetamide], the IC50 was > 1000 nM.

As to `O=C(Nc1ccc(Oc2ccc(F)cc2)cc1)[C@@H]1C[C@@H](Cc2ccccc2)CN1C(=O)Cc1ccccc1` [Compound 31, (2S,4R)-4-benzyl-N-(4-(4-fluorophenoxy)phenyl)-1-(2-phenylacetyl)pyrrolidine-2-carboxamide], the IC50 was ≤ 300 nM.

Consider `O=C(NC(COCc1ccccc1)C(=O)Nc1ccc(Oc2ccccc2)cc1)c1ccc(C(F)(F)F)cc1C(F)(F)F` (centres unmarked) [Compound 362, N-(2-oxo-1-{[(phenylmethyl)oxy]methyl}-2-{[4-(phenyloxy)phenyl]amino}ethyl)-2,4-bis(trifluoromethyl)benzamide], for which the IC50 fell in the range of 300 to 1000 nM.

Take `O=C(NC(COCc1ccccc1)C(=O)Nc1ccc(Oc2ccccc2)cc1)C(=O)c1ccco1` (centres unmarked) [Compound 14, 3-(benzyloxy)-2-(2-(furan-2-yl)-2-oxoacetamido)-N-(4-phenoxyphenyl)propanamide]: the IC50 is > 1000 nM.

For the compound `O=C(Cn1cncn1)N[C@@H](CCCNC(=O)OCc1ccccc1)C(=O)Nc1ccc(Oc2ccc(F)cc2)cc1` [Compound 165, (S)-benzyl 4-(2-(1H-1,2,4-triazol-1-yl)acetamido)-5-(4-(4-fluorophenoxy)phenylamino)-5-oxopentylcarbamate], the IC50 was ≤ 300 nM.

For `CC(=O)NCCC[C@H](NC(=O)Cn1cncn1)C(=O)Nc1ccc(Oc2ccc(F)cc2)cc1` [Compound 254, (S)-2-(2-(1H-1,2,4-triazol-1-yl)acetamido)-5-acetamido-N-(4-(4-fluorophenoxy)phenyl)pentanamide], the IC50 is ≤ 300 nM.

As to `O=C(Nc1ccc(Oc2ccccc2)cc1)C(COCc1ccccc1)NC(=O)[C@H](O)c1ccccc1Cl` (stereo partly drawn) [Compound 24, 3-(benzyloxy)-2-((R)-2-(2-chlorophenyl)-2-hydroxyacetamido)-N-(4-phenoxyphenyl)propanamide], the IC50 is > 1000 nM.

Regarding `COc1ccc(C(=O)NC(COCc2ccccc2)C(=O)Nc2ccc(Oc3ccccc3)cc2)c(C)c1` (centres unmarked) [Compound 309, 2-methyl-4-(methyloxy)-N-(2-oxo-1-{[(phenylmethyl)oxy]methyl}-2-{[4-(phenyloxy)phenyl]amino}ethyl)benzamide], the IC50 is > 1000 nM.
